Results: US7842808B2, “Anti-migraine spirocycles” (Bristol-Myers Squibb Company, priority 2002, dated 2010)
Like-named read-outs stand apart in the source and are kept apart here.

Columns and labels:
[1] = target: T1, human CGRP receptor (SK-N-MC cells) (Homo sapiens, UniProt O60894+Q16602); assay: Cyclic AMP Assay, functional antagonism of CGRP-induced cyclic AMP formation; type: cell-based
T1 construct: SK-N-MC cells that endogenously express the human CGRP receptor; endogenous in cells; host or cells: SK-N-MC cells
T1 sequence (Q16602 23-461): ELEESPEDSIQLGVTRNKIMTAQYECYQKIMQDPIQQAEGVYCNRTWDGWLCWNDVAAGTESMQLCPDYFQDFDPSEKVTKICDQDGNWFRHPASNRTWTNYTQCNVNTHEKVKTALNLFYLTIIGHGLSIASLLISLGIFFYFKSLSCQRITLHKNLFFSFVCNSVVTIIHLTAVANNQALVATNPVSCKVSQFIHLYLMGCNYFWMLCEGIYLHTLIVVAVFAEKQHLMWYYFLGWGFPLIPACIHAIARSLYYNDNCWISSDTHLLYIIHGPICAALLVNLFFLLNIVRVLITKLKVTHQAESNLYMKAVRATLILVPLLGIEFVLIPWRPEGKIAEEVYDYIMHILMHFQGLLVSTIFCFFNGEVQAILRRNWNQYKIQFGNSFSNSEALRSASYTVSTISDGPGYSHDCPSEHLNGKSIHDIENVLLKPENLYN
T1 sequence (O60894 27-148): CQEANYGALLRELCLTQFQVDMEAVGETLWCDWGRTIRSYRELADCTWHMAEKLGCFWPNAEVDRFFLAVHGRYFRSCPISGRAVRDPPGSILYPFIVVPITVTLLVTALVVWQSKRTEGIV
Protocol: Functional Antagonism. Antagonism of the compounds of invention was determined by measuring the formation of cyclic AMP (adenosine 3′5′-cyclic monophosphate) in SK-N-MC cells that endogenously express the human CGRP receptor. […] For cyclic AMP measurements SK-N-MC cells were incubated with 0.3 nM CGRP alone or in the presence of various concentrations of the compounds of invention for 30 min at room temperature. […] Cyclic AMP was extracted using the lysis reagent and its concentration was determined by radioimmunoassay using RPA559 cAMP SPA Direct Screening Assay Kit (Amersham Pharmacia Biotech). IC50 values were calculated using Excel fit.

[2] = target: T2, CGRP receptor (SK-N-MC cell membranes) (Homo sapiens, UniProt O60894+Q16602); assay: CGRP Binding Assay ([125I]-CGRP radioligand binding, SK-N-MC homogenate)
T2 construct: endogenous in cells; host or cells: SK-N-MC cells (membrane homogenate)
T2 sequence (Q16602 23-461): as the sequence (Q16602 23-461) above
T2 sequence (O60894 27-148): as the sequence (O60894 27-148) above

[3] = SK-N-MC cells, 0.3 nM CGRP, read-out: cAMP Function IC50
[4] = displacement of [125I]-CGRP, SK-N-MC homogenate, read-out: CGRP binding IC50

| Compound | IC50 [1, 3] | IC50 [2, 4] | IC50 [1] | IC50 [2] |
| --- | --- | --- | --- | --- |
| O=C1NCC2(CCN(C(=O)N[C@H](Cc3csc4ccccc34)C(=O)N3CCC(N4CCCCC4)CC3)CC2)c2ccccc21 [Example 63, N-[(1R)-1-(Benzo[b]thien-3-ylmethyl)-2-[1,4-bipiperidin]-1-yl-2-oxoethyl]-2′,3′-dihydro-1-oxospiro-[piperidine-4,4′(1H)-isoquinoline]-1-carboxamide] | 100 to 1000 nM | 100 to 1000 nM | – | – |
| Cc1cc(CC(CC(=O)N2CCC3(CC2)OC(=O)Nc2ccccc23)C(=O)N2CCCCC2)cc2cn[nH]c12 (racemic) [Example 77, (±)-2-(7-Methyl-1H-indazol-5-ylmethyl)-1-(piperidin-1-yl)-4-[1′,2′-dihydro-2′-oxospiro-[4H-3′,1-benzoxazine-4,4′-piperidinyl]-butane-1,4-dione] | 10 to 100 nM | 10 to 100 nM | – | – |
| Cc1cc(CC(CC(=O)N2CCC(N3Cc4ccccc4NC3=O)CC2)C(=O)N2CCOCC2)cc2cn[nH]c12 (racemic) [Example 75, (±)-2-(7-Methyl-1H-indazol-5-ylmethyl)-1-morpholin-4-yl-4-[4-(2-oxo-1,4-dihydro-2H-quinazolin-3-yl)-piperidin-1-yl]-butane-1,4-dione] | 10 to 100 nM | < 10 nM | – | – |
| O=C(C[C@H](Nc1cc(Cl)ccc1[N+](=O)[O-])C(=O)N1CCC(N2CCCCC2)CC1)N1CCC(N2Cc3ccccc3NC2=O)CC1 [Example 87, (L)-1-[1,4′]Bipiperidinyl-1′-yl-2-(5-chloro-2-nitro-phenylamino)-4-[4-(2-oxo-1,4-dihydro-2H-quinazolin-3-yl)-piperidin-1-yl]-butane-1,4-dione] | 10 to 100 nM | 10 to 100 nM | – | – |
| C#CCNC(=O)C(CC(=O)N1CCC(N2Cc3ccccc3NC2=O)CC1)Cc1cc(C)c2[nH]ncc2c1 (racemic) [Example 84, (±)-2-(7-Methyl-1H-indazol-5-ylmethyl)-4-oxo-4-[4-(2-oxo-1,4-dihydro-2H-quinazolin-3-yl)-piperidin-1-yl]-N-prop-2-ynyl-butyramide] | 10 to 100 nM | 10 to 100 nM | – | – |
| CC(C)(C)OC(=O)n1ncc2cc(CC(CC(=O)N3CCC(N4Cc5ccccc5NC4=O)CC3)C(=O)N3CCC(N4CCCCC4)CC3)ccc21 (racemic) [Example 83, (±)-5-{2-([1,4′]Bipiperidinyl-1′-carbonyl)-4-oxo-4-[4-(2-oxo-1,4-dihydro-2H-quinazolin-3-yl)-piperidin-1-yl]-butyl}-indazole-1-carboxylic acid tert-butyl ester] | 100 to 1000 nM | 10 to 100 nM | – | – |
| O=C(NC(Cc1ccc2[nH]ccc2c1)C(=O)N1CCC2(CC1)OCCO2)N1CCC(n2c(=O)[nH]c3ccccc32)CC1 (racemic) [Example 8, (±)-4-(2-Oxo-2,3-dihydro-benzoimidazol-1-yl)-piperidine-1-carboxylic acid[2-(1,4-dioxa-8-aza-spiro[4.5]dec-8-yl)-1-(1H-indol-5-ylmethyl)-2-oxo-ethyl]-amide] | – | – | 100 to 1000 nM | 100 to 1000 nM |
| O=C(NC(Cc1ccc2[nH]ncc2c1)C(=O)N1CCN(C(=O)OCc2ccccc2)CC1)N1CCC(N2Cc3ccccc3NC2=O)CC1 (centres unmarked) [Example 38, 4-(3-(1H-Indazol-5-yl)-2-{[4-(2-oxo-1,4-dihydro-2H-quinazolin-3-yl)-piperidine-1-carbonyl]-amino}-propionyl)-piperazine-1-carboxylic acid benzyl ester] | 10 to 100 nM | 10 to 100 nM | – | – |
| Cc1cc(CC(NC(=O)N2CCC3(CC2)OC(=O)Nc2ccccc23)C(=O)N2CCCCC2)cc2cn[nH]c12 (racemic) [Example 26, (±)-1-(7-Methyl-1H-indazol-5-ylmethyl)-2-(1-piperidinyl)-2-oxoethyl]-1′,2′-dihydro-2′-oxospiro-[4H-3′,1-benzoxazine-4,4′-piperidine]-1-carboxamide] | 10 to 100 nM | 10 to 100 nM | – | – |
| O=C(NC(Cc1ccc2[nH]ncc2c1)C(=O)N1CCC(N2CCCCC2)CC1)N1CCC(n2c(=O)[nH]c3ccccc32)CC1 (racemic) [Example 4, (±)-4-(2-Oxo-2,3-dihydro-benzoimidazol-1-yl)-piperidine-1-carboxylic acid[2-[1,4′]bipiperidinyl-1′-yl-1-(1H-indazol-5-ylmethyl)-2-oxo-ethyl]-amide] | 10 to 100 nM | 10 to 100 nM | – | – |
| Cc1cc(CC(CC(=O)N2CCC(N3Cc4ccccc4NC3=O)CC2)C(=O)N2CC(C)OC(C)C2)cc2cn[nH]c12 (racemic) [Example 73, (±)-1-(2,6-Dimethyl-morpholin-4-yl)-2-(7-methyl-1H-indazol-5-ylmethyl)-4-[4-(2-oxo-1,4-dihydro-2H-quinazolin-3-yl)-piperidin-1-yl]-butane-1,4-dione] | 10 to 100 nM | 10 to 100 nM | – | – |
| COc1ccc(C(=O)N[C@@H](CC(=O)N2CCC(N3Cc4ccccc4NC3=O)CC2)C(=O)N2CCC(N3CCCCC3)CC2)cc1 [Example 99, (L)-N-{1-([1,4′]Bipiperidinyl-1′-carbonyl)-3-oxo-3-[4-(2-oxo-1,4-dihydro-2H-quinazolin-3-yl)-piperidin-1-yl]-propyl}-4-methoxy-benzamide] | > 1000 nM | > 1000 nM | – | – |
| Cc1cc(CC(NC(=O)N2CCC3(CC2)CC(=O)Nc2ccccc23)C(=O)N2CCC(N3CCCCC3)CC2)cc2cn[nH]c12 (racemic) [Example 31, (±)-1-(7-Methyl-1H-indazol-5-ylmethyl)-2-[1,4-bipiperidin]-1-yl-2-oxoethyl]3′,4′-dihydro-2′-oxospiro-[piperidine-4,4′-(1H)-quinoline]-1-carboxamide] | < 10 nM | < 10 nM | – | – |
| CCC(C)CN1CCN(C(=O)C(Cc2ccc3[nH]ncc3c2)NC(=O)N2CCC(N3Cc4ccccc4NC3=O)CC2)CC1 (centres unmarked) [Example 40a, 4-(2-Oxo-1,4-dihydro-2H-quinazolin-3-yl)-piperidine-1-carboxylic acid{1-(1H-indazol-5-ylmethyl)-2-[4-(2-methyl-butyl)-piperazin-1-yl]-2-oxo-ethyl}-amide] | < 10 nM | < 10 nM | – | – |
| Cc1cc(CC(NC(=O)N2CCC3(CC2)NC(=O)Nc2ccccc23)C(=O)N2CCCCC2)cc2cn[nH]c12 (racemic) [Example 24, (±)-1-(7-Methyl-1H-indazol-5-ylmethyl)-2-(1-piperidinyl)-2-oxoethyl]-2′,3′-dihydro-2′-oxospiro-[piperidine-4,4′-(1H)-quinazoline]-1-carboxamide] | 10 to 100 nM | 10 to 100 nM | – | – |
| Cc1cc(CC(NC(=O)N2CCC3(CC2)N=C(c2ccccc2)NC3=O)C(=O)N2CCCCC2)cc2cn[nH]c12 (racemic) [Example 35, (±)-4-Oxo-2-phenyl-1,3,8-triaza-spiro[4,5]dec-1-ene-8-carboxylic acid {1-(7-methyl-1H-indazol-5-yl methyl)-2-[1-piperidinylyl]-2-oxo-ethyl}-amide] | 10 to 100 nM | 10 to 100 nM | – | – |
| CN(C)C(=O)C(CC(=O)N1CCC(N2Cc3ccccc3NC2=O)CC1)Cc1ccc2[nH]ncc2c1 (racemic) [Example 82, (±)-2-(1H-Indazol-5-ylmethyl)-N,N-dimethyl-4-oxo-4-[4-(2-oxo-1,4-dihydro-2H-quinazolin-3-yl)-piperidin-1-yl]-butyramide] | 100 to 1000 nM | 10 to 100 nM | – | – |
| O=C(C[C@H](Nc1cc(Cl)ncn1)C(=O)N1CCC(N2CCCCC2)CC1)N1CCC(N2Cc3ccccc3NC2=O)CC1 [Example 88, (L)-1-[1,4′]Bipiperidinyl-1′-yl-2-(6-chloro-pyrimidin-4-ylamino)-4-[4-(2-oxo-1,4-dihydro-2H-quinazolin-3-yl)-piperidin-1-yl]-butane-1,4-dione] | 10 to 100 nM | 100 to 1000 nM | – | – |
| Cc1nc(N[C@@H](CC(=O)N2CCC(N3Cc4ccccc4NC3=O)CC2)C(=O)N2CCC(N3CCCCC3)CC2)nc2nn[nH]c12 [Example 92, (L)-1-[1,4′]Bipiperidinyl-1′-yl-2-(7-methyl-1H-[1,2,3]triazolo[4,5-d]pyrimidin-5-ylamino)-4-[4-(2-oxo-1,4-dihydro-2H-quinazolin-3-yl)-piperidin-1-yl]-butane-1,4-dione] | 100 to 1000 nM | 10 to 100 nM | – | – |
| CC1(C)CN(CC(NC(=O)N2CCC(N3Cc4ccccc4NC3=O)CC2)C(=O)N2CCC(N3CCCCC3)CC2)Cc2cn[nH]c21 (racemic) [Example 56, (±)-4-(2-Oxo-1,4-dihydro-2H-quinazolin-3-yl)-piperidine-1-carboxylic acid[2-[1,4′]bipiperidinyl-1′-yl-1-(7,7-dimethyl-1,4,6,7-tetrahydro-pyrazolo[4,3-c]pyridin-5-ylmethyl)-2-oxo-ethyl]-amide] | < 10 nM | < 10 nM | – | – |
| O=C(N[C@H](Cc1csc2ccccc12)C(=O)N1CCC(N2CCCCC2)CC1)N1CCC2(CC1)Cc1ccccc1NC2=O [Example 61, (R)-1-Oxo-3,4-benzo-2,9-diaza-spiro[5.5]undec-3-ene-9-carboxylic acid (1-benzo[b]thiophen-3-ylmethyl-2-[1,4′]bipiperidinyl-1′-yl-2-oxo-ethyl)-amide] | 100 to 1000 nM | 100 to 1000 nM | – | – |
| Cc1cc(CC(NC(=O)N2CCC3(CC2)N=C(c2ccccc2)NC3=O)C(=O)N2CCC(N3CCCCC3)CC2)cc2cn[nH]c12 (racemic) [Example 34, (±)-4-Oxo-2-phenyl-1,3,8-triaza-spiro[4,5]dec-1-ene-8-carboxylic acid {1-(7-methyl-1H-indazol-5-yl methyl)-2-[1,4]bipiperidinyl-1′-yl-2-oxo-ethyl}-amide] | < 10 nM | < 10 nM | – | – |
